Target: T1, Src^32K (Mus musculus, UniProt P05480)
T1 construct: mouse Src^85-535 (Src^32K); GST (cleaved yes); made in house; host or cells: baculovirus-infected Sf9 insect cells, co-expressed with human Csk
Experiment: Competition nucleotide displacement assay (Mant-ADP, fluorescence anisotropy)
Assay type: binding
Conditions: Src^32K (pY527); displacement of Mant-ADP
Description: Figure 1 Autoinhibited Itk and Src kinases preferentially bind ADP. (a) Schematic of constructs evaluated in this study. Itk^32K, Src^32K, and Src^32KΔC contain the conserved module of SH3, SH2, and kinase (^32K) domains. Src^32K was truncated by […] to remove its C-terminal tail (inclusive of the Y527 phosphorylation site), generating a construct we refer to as Src^32KΔC (ΔC-tail). (b) Competition nucleotide displacement assay for Itk^32K. 40 μM Itk^32K was incubated with 40 μM Mant-ADP until equilibrium was established. Unlabelled ADP or AMPPNP was titrated into the reaction and fluorescence anisotropy monitored. Comparison of the equilibrium inhibition constants (K i) gives an indication of the relative strength of nucleotide binding. […] (c) Competition nucleotide displacement assay for Src^32K. 40 μM tail-phosphorylated Src^32K (pY527) or doubly phosphorylated Src^32K pY416 (pY527) was incubated with 40 μM Mant-ADP until equilibrium was established. Unlabelled ADP or AMPPNP was titrated into the reaction and fluorescence anisotropy monitored. Solid lines correspond to Src^32K, dashed lines to Src^32K pY416. AMPPNP binds to Src^32K with 20-fold weaker affinity than ADP. […] (d) Omit map showing clear electron density for ADP and a single magnesium ion in the nucleotide-binding pocket of Src. The magnesium is coordinated by Asn391, Asp404, and the α- and β- phosphates of ADP. The β-phosphate is directly coordinated by the guanidinium side chain of Arg388. […]
Since the concentration of ATP in the cell is typically higher than ADP[33],[34], we performed nucleotide competition assays in order to determine which nucleotide is bound in vivo. We measured the concentrations of ADP or AMPPNP required to displace Mant-ADP. […]
The binding constants for ADP and AMPPNP were determined for Src and Itk proteins by fluorescence anisotropy, using 2′/3′-Mant-labelled nucleotides (Jena Bioscience). […] Unlabelled nucleotide was titrated into the reaction and fluorescence anisotropy monitored. The equilibrium inhibition constant for the unlabelled nucleotide was calculated from the fitted curve.

T1 sequence (P05480 85-535): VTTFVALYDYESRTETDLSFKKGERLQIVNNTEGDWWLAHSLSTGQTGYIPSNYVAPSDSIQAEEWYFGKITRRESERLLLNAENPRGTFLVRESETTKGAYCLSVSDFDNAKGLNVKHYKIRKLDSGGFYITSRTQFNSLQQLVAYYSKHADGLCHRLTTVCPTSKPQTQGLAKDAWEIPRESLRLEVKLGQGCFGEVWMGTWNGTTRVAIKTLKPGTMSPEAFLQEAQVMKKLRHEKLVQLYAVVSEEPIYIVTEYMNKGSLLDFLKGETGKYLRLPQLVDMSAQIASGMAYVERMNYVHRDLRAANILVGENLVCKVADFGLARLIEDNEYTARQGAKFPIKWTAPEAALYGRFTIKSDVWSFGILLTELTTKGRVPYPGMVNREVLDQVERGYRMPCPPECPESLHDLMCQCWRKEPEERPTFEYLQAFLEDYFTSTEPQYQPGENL

fold difference in Ki, ADP preferred over AMPPNP: 19 fold
Compound: Nc1ncnc2c1ncn2[C@@H]1O[C@H](COP(=O)(O)OP(=O)(O)O)[C@@H](O)[C@H]1O [ADP]

— publication PMC5727165, “A switch in nucleotide affinity governs activation of the Src and Tec family kinases” (Scientific Reports, 2017)
